Data from US7973061B2, “Anaplastic lymphoma kinase modulators and methods of use” (Exelixis, Inc., priority 2004, dated 2011).

Molecular target: T1, ALK (baculovirus expressed human ALK kinase domain F1098-K1410) (Homo sapiens, UniProt Q9UM73)
T1 construct: human ALK kinase domain F1098-K1410; made in house
Assay: biochemical
Settings: 1 μM ATP, 4 μM poly-AEKY, 12 nM ALK, 2 hours at ambient temperature; read-out: ALK IC50
Experimental: Kinase activity and compound inhibition are investigated using one or more of the three assay formats described below. The ATP concentrations for each assay are selected to be close to the Michaelis-Menten constant (KM) for each individual kinase. Dose-response experiments are performed at 10 different inhibitor concentrations in a 384-well plate format. […] Y=Min+(Max−Min)/(1+(X/IC50)^H) Equation (2) Luciferase-Coupled Chemiluminescent Kinase Assay
ALK biochemical activity was assessed using a Luciferase-Coupled Chemiluminescent Kinase assay (LCCA) format in which kinase activity was measured as the percent ATP remaining following the kinase reaction. ATP remaining after the kinase reaction was detected by luciferase-luciferin-coupled chemiluminescence. […] The mixture was incubated at ambient temperature for 2 hours after which 20 μL luciferase-luciferin mix was added and the chemiluminescent signal read using a Wallac Victor^2 reader. […] Consumption of ATP by ALK can be quantified and utilized as a measure of inhibition of ALK activity by compounds described herein. By employing serial dilutions of compounds to be tested, the ability of test compounds to inhibit ALK activity can be determined.

T1 sequence (Q9UM73 1098-1410): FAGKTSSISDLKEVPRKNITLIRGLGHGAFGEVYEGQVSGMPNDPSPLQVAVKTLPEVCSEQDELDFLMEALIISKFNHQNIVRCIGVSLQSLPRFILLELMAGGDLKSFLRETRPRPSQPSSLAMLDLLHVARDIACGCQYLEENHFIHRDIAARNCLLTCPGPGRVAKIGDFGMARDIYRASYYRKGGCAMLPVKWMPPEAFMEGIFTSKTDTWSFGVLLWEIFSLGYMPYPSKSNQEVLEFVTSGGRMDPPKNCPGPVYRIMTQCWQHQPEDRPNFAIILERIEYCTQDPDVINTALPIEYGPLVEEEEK

SMILES	IC50 [µM]
O=C(Cc1ccc2ccccc2c1)NCc1nc(C(=O)NCCc2cccc(Cl)c2)cs1 [Entry 117, N-[2-(3-chlorophenyl)ethyl]-2-{[(naphthalen-2-ylacetyl)amino]methyl}-1,3-thiazole-4-carboxamide]	0.05 to 0.5
O=C(COc1ccc(OC(F)(F)F)cc1)NCc1nc(C(=O)NCCc2cccc(F)c2)co1 [Entry 148, N-[2-(3-fluorophenyl)ethyl]-2-({[({4-[(trifluoromethyl)oxy]phenyl}oxy)acetyl]amino}methyl)-1,3-oxazole-4-carboxamide]	0.05 to 0.5
O=C(COc1ccc(OC(F)(F)F)cc1)NCc1nc(C(=O)N[C@H]2CCC[C@@H]2OCc2ccccc2)cs1 [Entry 103, N-{(1S,2S)-2-[(phenylmethyl)oxy]cyclopentyl}-2-({[({4-[(trifluoromethyl)oxy]phenyl}oxy)acetyl]amino}methyl)-1,3-thiazole-4-carboxamide]	0.05 to 0.5
CCC(CC)CNC(=O)c1csc(CNC(=O)COc2ccc(OC(F)(F)F)cc2)n1 [Entry 132, N-(2-ethylbutyl)-2-({[({4-[(trifluoromethyl)oxy]phenyl}oxy)acetyl]amino}methyl)-1,3-thiazole-4-carboxamide]	0.05 to 0.5
Cc1ccc(CCNC(=O)c2coc(CNC(=O)COc3ccc(OC(F)(F)F)cc3)n2)cc1 [Entry 225, N-[2-(4-methylphenyl)ethyl]-2-({[({4-[(trifluoromethyl)oxy]phenyl}oxy)acetyl]amino}methyl)-1,3-oxazole-4-carboxamide]	0.5 to 2
O=C(COc1ccc(OC(F)(F)F)cc1)NCc1nc(C(=O)NCc2ccccc2)cs1 [Entry 194, N-(phenylmethyl)-2-({[({4-[(trifluoromethyl)oxy]phenyl}oxy)acetyl]amino}methyl)-1,3-thiazole-4-carboxamide]	0.05 to 0.5
O=C(NCc1nc(C(=O)NCCc2cccc(Cl)c2)cs1)N[C@@H]1C[C@H]1c1ccccc1 [Entry 217, N-[2-(3-chlorophenyl)ethyl]-2-{[({[(1R,2S)-2-phenylcyclopropyl]amino}carbonyl)amino]methyl}-1,3-thiazole-4-carboxamide]	0.05 to 0.5
CC(C)CCC(C)NC(=O)c1csc(CNC(=O)COc2ccc(OC(F)(F)F)cc2)n1 (stereo not shown) [Entry 262, N-(1,4-dimethylpentyl)-2-({[({4-[(trifluoromethyl)oxy]phenyl}oxy)acetyl]amino}methyl)-1,3-thiazole-4-carboxamide]	0.5 to 2
O=C(COc1ccc(OC(F)(F)F)cc1)NCc1nc(C(=O)NCCc2c[nH]c3ccccc23)co1 [Entry 251, N-[2-(1H-indol-3-yl)ethyl]-2-({[({4-[(trifluoromethyl)oxy]phenyl}oxy)acetyl]amino}methyl)-1,3-oxazole-4-carboxamide]	0.5 to 2
Cc1cccc(CCNC(=O)c2csc(CNC(=O)COc3ccc(OC(F)(F)F)cc3)n2)c1 [Entry 21, N-[2-(3-methylphenyl)ethyl]-2-({[({4-[(trifluoromethyl)oxy]phenyl}oxy)acetyl]amino}methyl)-1,3-thiazole-4-carboxamide]	< 0.05
CN(C)c1ccc(CNC(=O)c2csc(CNC(=O)COc3ccc(OC(F)(F)F)cc3)n2)cc1 [Entry 237, N-{[4-(dimethylamino)phenyl]methyl}-2-({[({4-[(trifluoromethyl)oxy]phenyl}oxy)acetyl]amino}methyl)-1,3-thiazole-4-carboxamide]	0.5 to 2
O=C(COc1ccc(OC(F)(F)F)cc1)NCc1nc(C(=O)NCCc2cccs2)cs1 [Entry 19, N-[2-(2-thienyl)ethyl]-2-({[({4-[(trifluoromethyl)oxy]phenyl}oxy)acetyl]amino}methyl)-1,3-thiazole-4-carboxamide]	< 0.05
O=C(COc1ccc(OC(F)(F)F)cc1)NCc1nc(C(=O)NCC2c3ccccc3CCc3ccccc32)co1 [Entry 38, N-(10,11-dihydro-5H-dibenzo[a,d]cyclohepten-5-ylmethyl)-2-({[({4-[(trifluoromethyl)oxy]phenyl}oxy)acetyl]amino}methyl)-1,3-oxazole-4-carboxamide]	0.05 to 0.5
